For 29 molecules, EC50, IC50 and AC50 results are on record in ChEMBL document CHEMBL1201862, “PubChem BioAssay data set” (2004).

A short description of test [1]: Luminescence Cell-Based Dose Confirmation HTS to Identify Inhibitors of Platelet Dense Granule Release. [Related pubchem assays: 1663 (Primary HTS), 1678 (Summary of Project)]. Type of test: functional.
Test [2] has as its target Luciferin 4-monooxygenase (Photinus pyralis, UniProt P08659). The test can be described thus: firefly luciferase enzyme inhibitors, dose response, biochemical, luminescence (AID 1891).
The test system of test [3] is BJ. Description: cells. Type of test: functional, cell-based. The settings on record: Homo sapiens.
A short description of test [4]: cytotoxicity toward DRD oncogenic fibroblasts, dose response, cell-based, non-viral oncogenic, luminescence (AID 1934). It counts as functional. The settings on record: Homo sapiens.
Test [5] relates to BJ. The test can be described thus: cytotoxicity toward BJ-TERT fibroblasts, dose response, cell-based, RAS-independent, luminescence (AID 1933). Type of test: functional. The settings on record: Homo sapiens.
The test system of test [6] is BJ. Description: cytotoxicity toward BJ-TERT-LT-ST fibroblasts, dose response, cell-based, RAS-independent, luminescence (AID 1935).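 Further: BJ fibroblasts immortalized with TERT plus LT and ST oncogenes.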 Type of test: functional. The settings on record: Homo sapiens.
In test [7] the target is T1, Zinc finger protein mex-5 (Caenorhabditis elegans, UniProt Q9XUB2).
T1 sequence (Q9XUB2 whole entry): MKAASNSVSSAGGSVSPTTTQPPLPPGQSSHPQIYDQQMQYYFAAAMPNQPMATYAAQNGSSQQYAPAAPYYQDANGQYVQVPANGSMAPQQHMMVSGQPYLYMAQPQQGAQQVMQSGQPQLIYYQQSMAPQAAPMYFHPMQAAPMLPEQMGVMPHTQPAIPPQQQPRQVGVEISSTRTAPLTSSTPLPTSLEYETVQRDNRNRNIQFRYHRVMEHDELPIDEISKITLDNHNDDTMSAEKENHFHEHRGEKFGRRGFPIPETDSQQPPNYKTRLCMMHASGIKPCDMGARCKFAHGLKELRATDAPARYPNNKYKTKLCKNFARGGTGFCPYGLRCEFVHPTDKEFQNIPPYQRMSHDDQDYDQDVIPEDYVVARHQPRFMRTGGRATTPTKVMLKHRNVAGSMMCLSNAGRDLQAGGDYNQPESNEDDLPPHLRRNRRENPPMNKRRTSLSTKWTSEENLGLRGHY
The test can be described thus: MEX-5/TCR-2 RNA interaction inhibitors, dose response, biochemical, C. elegans, fluorescence polarization (AID 1960).

Test [8] addresses T2, RNA-binding protein pos-1 (Caenorhabditis elegans, UniProt G5EF15).
T2 sequence (G5EF15 whole entry): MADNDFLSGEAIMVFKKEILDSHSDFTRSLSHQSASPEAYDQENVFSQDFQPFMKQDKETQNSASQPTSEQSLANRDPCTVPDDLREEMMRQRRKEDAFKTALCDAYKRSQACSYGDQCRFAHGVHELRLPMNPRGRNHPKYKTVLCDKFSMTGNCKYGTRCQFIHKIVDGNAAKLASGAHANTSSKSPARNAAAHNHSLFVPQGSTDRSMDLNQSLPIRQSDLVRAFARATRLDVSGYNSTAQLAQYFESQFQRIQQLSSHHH
Description: inhibitors of POS-1/mex-3 RNA binding, dose response, biochemical, fluorescence polarization (AID 1964).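 Further: purified POS-1 fused to maltose binding protein made in E. coli; potency of compounds blocking POS-1 binding to fluorescent RNA.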 For orientation: In fluorescence polarisation assays a small probe gives low polarisation when free and higher when bound to something large.

Test [9] addresses Large T antigen (Simian virus 40, UniProt P03070). It counts as functional, Betapolyomavirus macacae.
Test [10] relates to INS1. The test can be described thus: beta cell apoptosis inhibitors, cytokine rescue, dose response, luminescence, retest (AID 449756).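 Further: cell death triggered by IL-1 beta plus TNF-alpha plus IFN-gamma mixture; protective hits raise ATP signal compared with cytokine alone wells.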 It counts as functional, cell-based. The settings on record: Rattus norvegicus.
The target of test [11] is T3, Corticotropin-releasing factor receptor 2/Corticotropin-releasing factor-binding protein (Homo sapiens, UniProt P24387+Q13324).
T3 sequence (Q13324 whole entry): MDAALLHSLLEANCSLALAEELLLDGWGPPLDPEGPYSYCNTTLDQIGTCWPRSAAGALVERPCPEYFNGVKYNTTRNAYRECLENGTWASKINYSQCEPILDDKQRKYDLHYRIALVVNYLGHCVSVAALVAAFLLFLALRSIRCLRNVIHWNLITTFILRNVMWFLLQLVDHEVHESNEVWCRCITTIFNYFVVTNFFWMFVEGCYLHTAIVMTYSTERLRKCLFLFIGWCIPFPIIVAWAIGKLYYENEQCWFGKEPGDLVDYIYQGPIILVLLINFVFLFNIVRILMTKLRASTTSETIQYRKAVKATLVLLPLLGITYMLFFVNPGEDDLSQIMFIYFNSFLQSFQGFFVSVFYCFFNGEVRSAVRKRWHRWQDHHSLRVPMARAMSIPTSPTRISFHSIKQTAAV
T3 sequence (P24387 whole entry): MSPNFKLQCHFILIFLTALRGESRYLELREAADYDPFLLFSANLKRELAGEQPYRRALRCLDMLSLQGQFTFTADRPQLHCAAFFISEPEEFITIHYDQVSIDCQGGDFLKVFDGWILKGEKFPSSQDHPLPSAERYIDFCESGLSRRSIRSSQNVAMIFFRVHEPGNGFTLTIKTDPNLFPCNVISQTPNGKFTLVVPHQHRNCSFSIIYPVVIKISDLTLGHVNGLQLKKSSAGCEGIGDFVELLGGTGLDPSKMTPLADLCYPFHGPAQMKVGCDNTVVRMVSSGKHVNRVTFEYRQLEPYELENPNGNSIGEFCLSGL
Description: activators of CRF receptor 2 with binding protein – uHTS hits, confirmation (AID 602473). It counts as functional. The settings on record: read-out: EC50_Mean.

A short description of test [12]: inhibitors of SNCA 5'UTR-driven reporter translation, confirmation, H4 neuroglioma cells, luminescence (AID 1988). It counts as functional, cell-based.
Test [13] addresses T4, Heat shock factor protein 1 (Mus musculus, UniProt P38532).
T4 sequence (P38532 whole entry): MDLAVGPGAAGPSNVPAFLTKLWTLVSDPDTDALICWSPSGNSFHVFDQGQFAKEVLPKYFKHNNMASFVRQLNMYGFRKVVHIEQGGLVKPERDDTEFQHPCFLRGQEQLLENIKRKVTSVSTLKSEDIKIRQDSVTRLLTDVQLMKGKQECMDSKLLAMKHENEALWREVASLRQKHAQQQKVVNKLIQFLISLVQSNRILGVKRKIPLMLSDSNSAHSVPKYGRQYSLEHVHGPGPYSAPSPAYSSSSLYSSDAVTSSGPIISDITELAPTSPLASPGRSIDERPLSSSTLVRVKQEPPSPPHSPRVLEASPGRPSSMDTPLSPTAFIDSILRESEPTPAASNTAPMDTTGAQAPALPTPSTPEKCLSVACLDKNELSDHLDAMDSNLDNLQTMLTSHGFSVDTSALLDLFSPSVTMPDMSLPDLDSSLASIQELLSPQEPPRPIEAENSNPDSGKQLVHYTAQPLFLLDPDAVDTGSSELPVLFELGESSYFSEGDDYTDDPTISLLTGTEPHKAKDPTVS
Description: HSF1 potentiators in luciferase reporter cells, confirmation, cell-based, NIH3T3, luminescence, dose retest (AID 435004).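 Further: stress induced by proteasome inhibitor MG132 added 30 min after compound; luciferase reporter driven by HSF1 response element in NIH3T3 cells; actives raise luminescence as potentiators of the MG132 stress response.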 It counts as functional.

Active and inactive are the calls of the source. For most assays here, no stated cut-off is given here; in the data, actives have a measured EC50 and inactives only a lower limit.
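Wherever IC50 is given: Confirmatory-stage PubChem screen for compounds that inhibit SV40 T antigen.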

Chain of Luciferin 4-monooxygenase (P08659 whole entry): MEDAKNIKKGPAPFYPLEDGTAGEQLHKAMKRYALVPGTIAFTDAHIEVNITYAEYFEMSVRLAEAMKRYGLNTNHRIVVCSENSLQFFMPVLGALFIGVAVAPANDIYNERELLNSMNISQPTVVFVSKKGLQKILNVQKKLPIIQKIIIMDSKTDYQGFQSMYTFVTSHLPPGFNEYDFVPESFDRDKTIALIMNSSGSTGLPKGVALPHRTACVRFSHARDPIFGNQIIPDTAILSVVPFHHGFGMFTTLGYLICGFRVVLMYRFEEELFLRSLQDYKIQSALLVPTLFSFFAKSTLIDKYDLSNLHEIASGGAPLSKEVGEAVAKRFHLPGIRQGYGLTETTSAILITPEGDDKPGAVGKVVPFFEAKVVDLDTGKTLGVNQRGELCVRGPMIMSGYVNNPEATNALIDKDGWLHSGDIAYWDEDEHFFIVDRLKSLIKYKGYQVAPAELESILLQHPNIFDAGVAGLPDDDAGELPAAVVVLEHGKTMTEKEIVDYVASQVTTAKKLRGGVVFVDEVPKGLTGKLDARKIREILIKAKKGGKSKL
Chain of Large T antigen (P03070 whole entry): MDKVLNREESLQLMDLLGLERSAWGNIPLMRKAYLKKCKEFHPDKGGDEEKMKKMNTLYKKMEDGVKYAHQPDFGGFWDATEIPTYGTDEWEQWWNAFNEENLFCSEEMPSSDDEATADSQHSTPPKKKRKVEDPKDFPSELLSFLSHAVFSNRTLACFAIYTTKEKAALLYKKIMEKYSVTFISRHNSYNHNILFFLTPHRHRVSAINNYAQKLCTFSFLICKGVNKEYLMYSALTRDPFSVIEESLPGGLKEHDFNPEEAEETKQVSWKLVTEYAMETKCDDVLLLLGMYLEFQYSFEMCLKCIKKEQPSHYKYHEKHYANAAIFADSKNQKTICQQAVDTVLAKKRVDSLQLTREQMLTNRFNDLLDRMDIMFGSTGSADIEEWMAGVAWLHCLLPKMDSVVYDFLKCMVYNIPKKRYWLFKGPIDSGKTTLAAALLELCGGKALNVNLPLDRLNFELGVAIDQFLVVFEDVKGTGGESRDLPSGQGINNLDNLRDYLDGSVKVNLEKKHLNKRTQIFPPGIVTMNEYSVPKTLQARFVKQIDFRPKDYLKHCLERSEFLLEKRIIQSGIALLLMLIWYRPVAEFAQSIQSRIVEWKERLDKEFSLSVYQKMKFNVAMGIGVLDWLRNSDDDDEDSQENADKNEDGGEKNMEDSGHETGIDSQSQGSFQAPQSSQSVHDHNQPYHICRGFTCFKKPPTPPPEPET

For the molecule `Cn1c(=O)c2c(nc(CN3CCOCC3)n2CC(=O)c2ccccc2)n(C)c1=O`, the EC50 in test [1] was 39 µM (active); in [2], > 112 µM (not active).
Take `CC(C)(C)NC(=O)CN1CCN(C(=O)CCl)CC1`: the EC50 in test [3] was > 150 µM (inconclusive); in test [4], > 150 µM (not active); in [5], > 150 µM (not active); in test [6], > 150 µM (not active).
On to `Cc1nnc(NC(=O)CSc2cn(CCNC(=O)c3ccccc3)c3ccccc23)s1`, for which the EC50 in test [1] was 80 µM (active); in [2], > 112 µM (not active).
In the case of `O=C(OCC(=O)c1ccco1)c1ccc2ncsc2c1`, the EC50 in [7] and in test [8] was > 300 µM (not active) each time.
Take `COc1cc(Cl)ccc1OCc1cc(C(=O)N2C[C@]3(C)C[C@H]2CC(C)(C)C3)no1`: the EC50 in test [1] is > 112 µM (not active); in test [2], 27 µM (active).
For `Cc1c(C(=O)O)cccc1-n1c(C)cc(C=O)c1C`, the EC50 in test [7] and in test [8] was > 300 µM (not active) in each case.
Broadly, the IC50 is the concentration needed to halve the response being measured. For the molecule `Cc1ccc(S(=O)(=O)CCC(=O)Oc2ccc3c(C)cc(=O)oc3c2)cc1`, the IC50 in test [9] was 48.6 µM (active).
On to `O=C(C(Cc1ccccc1)n1cccc1)N1CCN(c2ncccn2)CC1` (stereo not drawn), for which the EC50 in test [1] and in [2] was > 112 µM (not active) each time.
As a reminder, the AC50 is the midpoint of the concentration-response curve, whichever way the signal moves. `Cc1ccc(-c2sc(-c3ccccc3)nc2CC(=O)Nc2ccccc2F)cc1`: in test [10], the half-maximal activity concentration (AC50) was 2.27 µM (active). For the same molecule, the EC50 in [11] is > 53 µM (inactive).
`Cc1c(Cl)cccc1NC(=O)Nc1ccc(C(=O)N2CCCC2)cc1`: the results for the EC50 in test [1] and in test [2] were 30.4 µM (active) and 1.94 µM (active), respectively.
On to `Oc1nc(/C=C/c2ccccc2F)nc2ccccc12`, for which the EC50 in [3] is 45.2 µM (inconclusive); in [4], 2.25 µM (active); in [5], 2.12 µM (active); in [6], 29.3 µM (inconclusive); in test [12], 7.23 µM (inconclusive).
For the molecule `CCN1/C(=C2\SC(=S)N(Cc3ccccc3)C2=O)Sc2ccccc21`, the EC50 in test [11] is > 53 µM (inactive).
With `COc1cc(SC)ccc1C(=O)N1CCN(Cc2ccccc2)CC1`, the IC50 in test [9] was 53.8 µM (active).
Turning to `COc1ccc(NC(=O)CN(C)C(=O)CSc2ccc3c(c2)OCCO3)cc1`, in test [11], the EC50 was > 53 µM (inactive).
Regarding `Cc1ccc(S(=O)(=O)N(CCCN2CCCC2=O)Cc2cc3c(C)ccc(C)c3[nH]c2=O)cc1`, the EC50 in [7] and in [8] was > 300 µM (not active) in each case.
With `COc1ccc(NC(=O)CN2CCC(NC(=O)C3CCCCC3)CC2)c([N+](=O)[O-])c1`, the EC50 is > 300 µM (not active) in test [7] and 67.9 µM (active) in test [8].
As for `Cc1cccc(-c2cnn(-c3ccccc3)c2N)c1`, the results for the EC50 in test [1] and in [2] were 31.7 µM (active) and 46 µM (active), respectively.
As for `Cc1ccnc(NC(=O)c2ccoc2C)c1`, the EC50 was 3.51 µM (active) in test [1] and 17.5 µM (active) in test [2].
On to `CCOC(=O)C1CCN(C(=O)c2ccc3c(c2)NC(=O)/C(=C\c2ccc(C)cc2)S3)CC1`, for which the results for the EC50 in [7] and in test [8] were 30.8 µM (active) and 7.37 µM (active), respectively.
Consider `CSc1ccc(C(=O)C2CCCN(S(=O)(=O)c3c(C)noc3C)C2)cc1` (stereo not drawn), for which the EC50 in test [1] and in [2] was > 112 µM (not active) throughout.
For the molecule `O=C(CCN1C(=O)/C(=C\c2ccccc2F)SC1=S)N1CCCCC1`, the EC50 in test [3] was 14.4 µM (active); in [4], 15.5 µM (active); in test [5], 15.8 µM (active); in test [6] it was > 75 µM (not active).
`CC(=O)c1cccc(-n2nnnc2SCC(=O)N2CCCC2)c1`: the EC50 in test [1] and in [2] was > 112 µM (not active) throughout.
For `COc1ccc(CC(=O)NNC2=Nc3cccc4cccc2c34)cc1`, the EC50 in [7] is > 150 µM (inconclusive); in test [8] it was 119 µM (inconclusive).
`Cc1ccc(CSC(Nc2ccc(F)cc2)=C(C#N)C#N)cc1`: the AC50 in test [10] is 3.19 µM (active). In addition, the EC50 was > 53 µM (inactive) in [11]; > 150 µM (not active) in test [3]; 76.4 µM (active) in test [4]; 14.1 µM (active) in test [5]; > 75 µM (not active) in test [6].
`O=C(Nc1ccccc1O)c1cccc(S(=O)(=O)Nc2ccccc2O)c1`: the EC50 in test [7] was 36.2 µM (active); in [13], > 260 µM (inactive); in test [8], 59.1 µM (active).
Take `Cc1cccc(-n2c(C)cc(/C=C3\C(=N)N4N=C(CC(C)C)SC4=NC3=O)c2C)c1`: the EC50 in [11] is 24.2 µM (active).
As for `Cc1cc2c(n1-c1ccc(C(=O)O)cc1)CCCCC2`, in test [9], the IC50 was 71.2 µM (active).
Regarding `Cc1ccc(CN2CCN(/N=C/C(Br)=C\c3ccccc3)CC2)cc1`, the EC50 in [11] is > 53 µM (inactive).
For `Cc1ccc(/C=N/NC(=O)c2nn(C)cc2Cl)cc1`, the EC50 in test [1] was 16.6 µM (active); in test [2] it was 19.9 µM (active).
